Source: ChEMBL document CHEMBL1201862, “PubChem BioAssay data set” (2004)
Activity calls are given as the source filed them.

Experiments:
[1] = target: FAD-linked sulfhydryl oxidase ALR (Homo sapiens, UniProt P55789); assay: inhibitors of human ALR sulfhydryl oxidase, dose response, biochemical, H2O2 detection, luminescence, cherry-pick (AID 493248)
[2] = target: T1, Rac GTPase-activating protein 1 (Homo sapiens, UniProt Q9H0H5); assay: MgcRacGAP GTPase-activating activity inhibitors, confirmation, biochemical, ADP Hunter fluorescence, primary and confirmatory (AID 624330); assay type: functional
T1 sequence (Q9H0H5 whole entry): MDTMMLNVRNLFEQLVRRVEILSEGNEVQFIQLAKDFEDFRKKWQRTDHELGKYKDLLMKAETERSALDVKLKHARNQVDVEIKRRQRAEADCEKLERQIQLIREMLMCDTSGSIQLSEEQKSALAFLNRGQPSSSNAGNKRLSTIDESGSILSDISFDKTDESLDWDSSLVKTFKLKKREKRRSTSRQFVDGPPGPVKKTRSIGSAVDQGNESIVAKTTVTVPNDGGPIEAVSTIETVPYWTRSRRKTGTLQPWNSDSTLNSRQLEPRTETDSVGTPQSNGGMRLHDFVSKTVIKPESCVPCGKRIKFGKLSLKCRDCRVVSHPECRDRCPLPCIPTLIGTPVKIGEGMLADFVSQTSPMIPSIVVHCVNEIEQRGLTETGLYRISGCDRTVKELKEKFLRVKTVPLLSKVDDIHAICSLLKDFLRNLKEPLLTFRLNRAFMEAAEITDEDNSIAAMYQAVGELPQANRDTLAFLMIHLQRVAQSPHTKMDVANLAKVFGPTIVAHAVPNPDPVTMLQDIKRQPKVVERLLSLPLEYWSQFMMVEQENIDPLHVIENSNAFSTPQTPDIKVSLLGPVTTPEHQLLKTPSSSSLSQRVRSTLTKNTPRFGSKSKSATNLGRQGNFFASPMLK

Caspase-6 = target: T2, Caspase-6 (Homo sapiens, UniProt P55212); assay: human caspase-6 inhibitors, dose response, biochemical, VEID-R110 fluorescence, cherry-pick (AID 720632)
T2 sequence (P55212 whole entry): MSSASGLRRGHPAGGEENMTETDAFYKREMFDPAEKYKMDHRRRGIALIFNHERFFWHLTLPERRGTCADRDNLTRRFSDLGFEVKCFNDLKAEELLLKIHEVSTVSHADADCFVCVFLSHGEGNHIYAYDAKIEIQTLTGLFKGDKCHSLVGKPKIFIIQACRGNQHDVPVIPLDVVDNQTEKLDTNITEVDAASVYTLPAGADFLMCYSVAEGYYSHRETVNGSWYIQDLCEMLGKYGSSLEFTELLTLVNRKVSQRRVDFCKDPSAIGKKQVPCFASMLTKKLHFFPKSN

[3] = M. tuberculosis H37Rv growth inhibitors, H37Rv strain (AID 1626); assay type: functional
[4] = inhibitors of intracellular T. cruzi replication, confirmation, NIH3T3 host cells, beta-gal luminescence (AID 2044); assay type: functional, cell-based;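 note: intracellular parasites grown in NIH/3T3 mouse fibroblasts as host cells; luminescent beta-galactosidase reporter signal from transgenic T. cruzi replicating inside host cells; inhibitors lower the luminescence signal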
[5] = cytotoxicity toward NIH3T3 fibroblasts, dose response, counter-screen, cell-based, ATP luminescence, mouse fibroblasts (AID 2010); assay type: functional;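 note: cells exposed to compound for about 90 hours before reading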
[6] = Vero cell cytotoxicity, dose response, cytotoxicity control for Vif-APOBEC3G degradation inhibitor project, Vero cells (AID 1117358); assay type: functional; conditions: Human immunodeficiency virus 1, Vero
[7] = target: Voltage-gated inwardly rectifying potassium channel KCNH2 (Homo sapiens, UniProt Q12809); assay: hERG protection from proarrhythmic block, potency, dose response, cell-based, thallium flux (AID 2121); assay type: ADME
Voltage-gated inwardly rectifying potassium channel KCNH2, sequence (Q12809 whole entry): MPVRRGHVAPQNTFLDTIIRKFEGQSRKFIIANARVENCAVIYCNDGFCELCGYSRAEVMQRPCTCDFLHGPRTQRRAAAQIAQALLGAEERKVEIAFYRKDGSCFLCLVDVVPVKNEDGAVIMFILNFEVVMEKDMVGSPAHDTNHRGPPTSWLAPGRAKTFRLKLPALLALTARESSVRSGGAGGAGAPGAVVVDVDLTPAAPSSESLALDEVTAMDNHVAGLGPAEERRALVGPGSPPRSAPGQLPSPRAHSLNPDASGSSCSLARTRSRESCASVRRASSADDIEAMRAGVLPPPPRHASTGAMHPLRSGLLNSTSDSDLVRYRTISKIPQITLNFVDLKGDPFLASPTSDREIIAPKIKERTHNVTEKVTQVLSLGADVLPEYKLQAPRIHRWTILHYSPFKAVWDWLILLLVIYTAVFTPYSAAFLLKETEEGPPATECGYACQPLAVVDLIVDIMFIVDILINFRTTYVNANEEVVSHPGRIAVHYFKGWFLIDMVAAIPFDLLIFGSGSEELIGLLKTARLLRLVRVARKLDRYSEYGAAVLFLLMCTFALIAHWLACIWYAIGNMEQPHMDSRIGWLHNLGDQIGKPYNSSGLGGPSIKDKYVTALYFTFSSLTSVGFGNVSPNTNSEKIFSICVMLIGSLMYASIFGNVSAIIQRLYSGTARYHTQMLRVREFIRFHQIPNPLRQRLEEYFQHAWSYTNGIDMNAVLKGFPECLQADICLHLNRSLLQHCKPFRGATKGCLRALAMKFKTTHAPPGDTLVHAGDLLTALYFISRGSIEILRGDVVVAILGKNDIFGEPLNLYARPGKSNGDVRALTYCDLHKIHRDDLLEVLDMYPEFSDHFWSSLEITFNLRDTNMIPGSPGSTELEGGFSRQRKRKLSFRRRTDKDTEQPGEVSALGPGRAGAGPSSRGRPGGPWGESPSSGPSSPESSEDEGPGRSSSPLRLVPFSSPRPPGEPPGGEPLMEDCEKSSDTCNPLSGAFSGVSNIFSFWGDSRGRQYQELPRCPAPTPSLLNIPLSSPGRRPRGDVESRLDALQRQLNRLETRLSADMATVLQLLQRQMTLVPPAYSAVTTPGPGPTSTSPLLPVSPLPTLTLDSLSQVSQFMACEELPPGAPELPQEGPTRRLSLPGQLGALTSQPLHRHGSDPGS

[8] = NIH-3T3 fibroblast cytotoxicity, dose response, cytotoxicity control, cell-based, fluorescence, Alamar Blue, secondary assay (AID 2327); assay type: functional;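 note: NIH-3T3 mouse fibroblasts cultured with fluconazole at 8 µg/mL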
[9] = test system: Streptococcus sp. 'group A'; assay: growth inhibition of control SK(-) GAS strain, dose response, counter-screen for streptokinase expression inhibitor project, luminescence, kanamycin, BacTiterGlo, confirmation (AID 1900); assay type: functional, organism-based
[10] = C. albicans growth with fluconazole, confirmation, fluorescence, retest (AID 2467); assay type: functional, cell-based
Streptococcus = assay: Group A Streptococcus viability loss, dose response, counter-screen for streptokinase expression inhibitor project, luminescence, BacTiterGlo (AID 1915); assay type: functional, organism-based;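 note: potency for reduction of bacterial viability or growth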
[11] = A Cell Based Secondary Assay To Explore Cytotoxicity of Compounds that Sensitize Mycobacterium Tuberculosis to Beta-Lactam Antibiotics.; assay type: functional
[12] = cytotoxicity in HPDE-C7 cells, cell-based, fluorescence, HTS (AID 430); assay type: functional; conditions: Homo sapiens
[13] = cytotoxicity in KRAS-transformed pancreatic duct cells, primary screen, cell-based, fluorescence, HTS (AID 431); assay type: functional; conditions: Homo sapiens;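 note: cell line used: HPDE-C7K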
Cytochrome P450 2C9 = Cytochrome P450 2C9 (Homo sapiens, UniProt P11712)
Cytochrome P450 2C9, sequence (P11712 whole entry): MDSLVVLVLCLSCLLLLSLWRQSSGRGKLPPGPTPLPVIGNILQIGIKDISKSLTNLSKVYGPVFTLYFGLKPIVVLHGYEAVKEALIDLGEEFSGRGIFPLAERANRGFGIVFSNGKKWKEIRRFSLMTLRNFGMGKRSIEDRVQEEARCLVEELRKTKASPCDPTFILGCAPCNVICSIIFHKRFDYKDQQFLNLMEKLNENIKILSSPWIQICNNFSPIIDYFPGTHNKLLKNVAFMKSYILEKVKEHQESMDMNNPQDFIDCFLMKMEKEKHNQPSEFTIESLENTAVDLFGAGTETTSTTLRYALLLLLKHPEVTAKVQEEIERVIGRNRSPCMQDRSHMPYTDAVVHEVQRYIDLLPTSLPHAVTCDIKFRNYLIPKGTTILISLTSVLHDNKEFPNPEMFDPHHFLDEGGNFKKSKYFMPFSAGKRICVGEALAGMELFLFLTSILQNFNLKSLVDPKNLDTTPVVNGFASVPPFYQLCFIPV

[14] = Luminescence-based cell-based high throughput dose response assay to identify activators of the DAF-12 from the parasite S. stercoralis (ssDAF-12).; assay type: functional
[15] = target: T3, Oxysterols receptor LXR-beta (Homo sapiens, UniProt P55055); assay: LXR agonists, Gal4 luciferase reporter, dose response, counter-screen for ssDAF-12 agonist project, cell-based, luminescence, HEK293, S. stercoralis campaign (AID 720737); assay type: functional; conditions: read-out: IC50 (the source's name)
T3 sequence (P55055 whole entry): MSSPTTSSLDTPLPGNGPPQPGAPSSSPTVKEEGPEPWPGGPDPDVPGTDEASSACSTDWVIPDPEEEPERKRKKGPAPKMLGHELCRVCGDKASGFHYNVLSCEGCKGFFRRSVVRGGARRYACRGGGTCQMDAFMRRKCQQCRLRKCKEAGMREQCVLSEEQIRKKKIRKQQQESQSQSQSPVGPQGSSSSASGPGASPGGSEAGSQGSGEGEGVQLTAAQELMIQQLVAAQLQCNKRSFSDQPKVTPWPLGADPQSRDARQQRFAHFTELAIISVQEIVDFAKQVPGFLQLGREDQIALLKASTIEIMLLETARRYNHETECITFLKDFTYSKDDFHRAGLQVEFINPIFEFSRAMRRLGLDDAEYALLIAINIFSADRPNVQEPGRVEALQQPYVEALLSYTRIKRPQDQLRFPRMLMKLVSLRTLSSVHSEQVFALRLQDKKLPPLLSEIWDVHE

[16] = P. falciparum Dd2 growth inhibitors, dose response, SYBR Green, cherry-picked samples (AID 1159567); assay type: functional, cell-based
[17] = HepG2 cell cytotoxicity, dose response, cytotoxicity control, cherry-picked samples (AID 1159577); assay type: functional, cell-based
[18] = target: T4, Replicative DNA helicase DnaB (Mycobacterium tuberculosis, UniProt P9WMR3); assay: DnaB intein splicing inhibitors, dose response, biochemical, cell-free fluorescence (AID 449749); assay type: functional
T4 sequence (P9WMR3 whole entry): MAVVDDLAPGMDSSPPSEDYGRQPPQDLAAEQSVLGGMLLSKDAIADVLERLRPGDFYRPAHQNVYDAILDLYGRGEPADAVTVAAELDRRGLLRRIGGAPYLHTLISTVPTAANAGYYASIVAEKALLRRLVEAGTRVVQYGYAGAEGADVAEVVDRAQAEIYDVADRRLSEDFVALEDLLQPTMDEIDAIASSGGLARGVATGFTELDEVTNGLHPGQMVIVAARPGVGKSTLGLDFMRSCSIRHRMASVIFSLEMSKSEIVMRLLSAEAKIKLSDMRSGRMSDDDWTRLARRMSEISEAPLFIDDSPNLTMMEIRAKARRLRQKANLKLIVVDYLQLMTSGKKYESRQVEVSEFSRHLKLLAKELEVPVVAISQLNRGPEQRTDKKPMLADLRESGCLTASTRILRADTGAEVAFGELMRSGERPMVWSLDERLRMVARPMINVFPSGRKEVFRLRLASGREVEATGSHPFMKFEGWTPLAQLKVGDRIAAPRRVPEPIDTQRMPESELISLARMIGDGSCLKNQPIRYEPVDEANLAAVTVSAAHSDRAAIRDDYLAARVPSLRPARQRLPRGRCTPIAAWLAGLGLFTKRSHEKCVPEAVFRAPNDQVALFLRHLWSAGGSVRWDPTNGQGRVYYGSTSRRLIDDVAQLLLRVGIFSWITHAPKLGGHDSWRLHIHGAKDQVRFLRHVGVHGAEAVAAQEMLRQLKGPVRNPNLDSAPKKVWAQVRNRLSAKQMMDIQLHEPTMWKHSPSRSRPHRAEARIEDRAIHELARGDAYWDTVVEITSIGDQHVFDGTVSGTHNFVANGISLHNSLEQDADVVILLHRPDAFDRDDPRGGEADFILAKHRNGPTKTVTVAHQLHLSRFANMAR

Protein RecA = target: T5, Protein RecA (Mycobacterium tuberculosis, UniProt P9WHJ3); assay: Fluorescence Cell-Free Homogeneous Dose Retest to Identify Inhibitors of RecA-Intein Splicing Activity. [Related pubchem assays (depositor defined):AID2097, AID2223, AID489010, AID492950]; assay type: functional
T5 sequence (P9WHJ3 whole entry): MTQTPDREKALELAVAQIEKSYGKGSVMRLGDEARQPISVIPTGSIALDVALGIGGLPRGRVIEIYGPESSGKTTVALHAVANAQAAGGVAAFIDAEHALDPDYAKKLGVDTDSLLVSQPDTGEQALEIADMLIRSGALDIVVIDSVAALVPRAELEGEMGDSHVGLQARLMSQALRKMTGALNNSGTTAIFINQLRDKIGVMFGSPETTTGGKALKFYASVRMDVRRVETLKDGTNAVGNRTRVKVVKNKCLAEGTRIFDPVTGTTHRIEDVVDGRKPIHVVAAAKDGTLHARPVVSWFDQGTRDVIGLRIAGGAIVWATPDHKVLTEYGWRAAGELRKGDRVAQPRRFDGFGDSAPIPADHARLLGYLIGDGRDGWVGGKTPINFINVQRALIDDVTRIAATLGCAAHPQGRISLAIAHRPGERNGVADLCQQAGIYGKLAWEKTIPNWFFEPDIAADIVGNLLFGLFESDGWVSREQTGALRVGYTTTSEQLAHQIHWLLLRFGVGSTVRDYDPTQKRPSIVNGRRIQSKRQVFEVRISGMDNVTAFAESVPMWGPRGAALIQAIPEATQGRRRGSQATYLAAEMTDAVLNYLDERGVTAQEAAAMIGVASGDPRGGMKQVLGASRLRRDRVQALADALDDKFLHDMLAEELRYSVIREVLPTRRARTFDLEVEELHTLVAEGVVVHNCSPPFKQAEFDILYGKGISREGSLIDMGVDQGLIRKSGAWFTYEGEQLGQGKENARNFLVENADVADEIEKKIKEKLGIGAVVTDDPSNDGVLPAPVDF

FAD-linked sulfhydryl oxidase ALR, sequence (P55789 whole entry): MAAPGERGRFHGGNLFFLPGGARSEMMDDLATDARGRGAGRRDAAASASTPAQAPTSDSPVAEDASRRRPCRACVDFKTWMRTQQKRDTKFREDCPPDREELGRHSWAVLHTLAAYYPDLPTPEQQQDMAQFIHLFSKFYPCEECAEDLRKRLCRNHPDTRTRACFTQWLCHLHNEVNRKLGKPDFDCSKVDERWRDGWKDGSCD

## CC(=O)N1CCN(c2ccc(N)cc2)CC1
[1]
  AC50: 1.06 µM (active)
[2]
  IC50: 16.2 µM (active)
Caspase-6
  AC50: 11.1 µM (active)

## CCOc1ccc(NC(=O)CSc2ccccc2N)cc1
[3]
  IC50: > 100 µM (active)

## c1ccc(-c2cc(-c3nnc4n3N=C(c3ccc5ccccc5c3)CS4)n[nH]2)cc1
[4]
  EC50: 1.63 µM (active)
[5]
  EC50: 7.45 µM (active)
[6]
  CC50: > 40 µM (active)

## C=C(C)CN=C(S)NN=C1c2ccccc2-c2ccccc21
[7]
  EC50: 0.95 µM (active)

## Cc1ccc(NC(S)=NNc2ncc(C(F)(F)F)cc2Cl)cc1
[6]
  CC50: > 40 µM (active)

## CC(C)(C)c1ccc(C(=O)CC(=O)c2cc(Cl)ccc2O)cc1
[8]
  EC50: 136 µM (active)
[9]
  EC50: 0.192 µM (active)
[10]
  EC50: 1.9 µM (active)
[7]
  EC50: 6.61 µM (active)
Streptococcus
  EC50: 2.68 µM (active)

## Cc1nn(C)c(C)c1NC(=O)CCCSc1nc(-c2ccco2)cc(C(F)(F)F)n1
[11]
  CC50: > 40 µM (active)

## CS(=O)(=O)N(Cc1cc2ccccc2nc1O)C1CCCCC1
[12]
  EC50: > 20 µM (not active)
[13]
  EC50: > 20 µM (not active)
Cytochrome P450 2C9
  AC50: 39.8 µM (inconclusive)

## CC1=NN(C(=O)CCc2ccc3c(c2)OCO3)C(O)(C(F)(F)F)C1 (stereo unspecified)
[14]
  IC50: > 67.5 µM (inactive)
[15]
  EC50: > 67.5 µM (inactive)

## CCC(=O)N1[C@H](CO)[C@H](c2ccc(C3=CCCC3)cc2)[C@H]1CNC1CCCC1
[16]
  AC50: 5.63 µM (active)
[17]
  AC50: > 42 µM (inactive)

## c1ccc(Cc2c(-c3ccco3)nc3c4ccccc4ccn23)cc1
[14]
  IC50: > 67.5 µM (inactive)
[15]
  EC50: > 67.5 µM (inactive)

## O=C(CCS(=O)(=O)c1ccc(F)cc1)Nc1nnc(-c2cccs2)o1
[11]
  CC50: 24.3 µM (active)

## Cc1ccc(/C=N/Nc2ccc(C(=O)O)cc2)o1
[7]
  EC50: 11 µM (active)
[1]
  AC50: 2.79 µM (active)

## COc1cc(-c2nnc(O)o2)cc(OC)c1OC
[6]
  CC50: > 40 µM (active)

## Cc1nc(SCc2ccccc2F)c2oc3ccccc3c2n1
[3]
  IC50: > 100 µM (active)

## Cc1ccc2nc(N(CCCN(C)C)C(=O)c3ccc(S(=O)(=O)N4CCOCC4)cc3)sc2c1
[4]
  EC50: < 0.1 µM (active)
[5]
  EC50: 10.8 µM (active)
cells
  EC50: 0.007 µM (active)

## O=C(CCC1CCCN(Cc2cccc(Cl)c2)C1)NCc1ccccc1F (stereo unspecified)
[4]
  EC50: < 0.1 µM (active)
[5]
  EC50: > 30 µM (not active)
cells
  EC50: 0.045 µM (active)

## Cc1cc(C)c(N/C=C2/C(=O)N(c3nccs3)C(=O)c3ccccc32)c(C)c1
[11]
  CC50: > 40 µM (active)

## CCOc1ccc(N2C(=O)/C(=C\c3ccc(OC)c(O)c3)S(=O)(=O)C2c2cccc([N+](=O)[O-])c2)cc1 (stereo unspecified)
[3]
  IC50: > 100 µM (active)
[18]
  AC50: 10.2 µM (active)
Protein RecA
  EC50: 6.38 µM (active)

## Cc1ccc(-c2ccc([C@@H]3[C@H](CO)N4CCCCN(S(=O)(=O)c5ccccc5C)C[C@@H]34)cc2)cc1
[16]
  AC50: 0.589 µM (active)
[17]
  AC50: 11 µM (active)
